Results on twelve compounds are retold here after ChEMBL document CHEMBL3813600, “Identification of a novel boronic acid as a potent, selective, and orally active hormone sensitive lipase inhibitor” (Bioorg Med Chem, 2016).

Data set [1] deals with Rattus norvegicus. As to the kind of experiment: Antilipolytic activity in fasted Wistar rat assessed as reduction of plasma glycerol AUC ( 0 to 7 hrs) at 10 mg/kg, po. It is filed as functional, organism-based.
In data set [2] the target is T1, Hormone-sensitive lipase (Homo sapiens, UniProt Q05469).
T1 sequence (Q05469 whole entry): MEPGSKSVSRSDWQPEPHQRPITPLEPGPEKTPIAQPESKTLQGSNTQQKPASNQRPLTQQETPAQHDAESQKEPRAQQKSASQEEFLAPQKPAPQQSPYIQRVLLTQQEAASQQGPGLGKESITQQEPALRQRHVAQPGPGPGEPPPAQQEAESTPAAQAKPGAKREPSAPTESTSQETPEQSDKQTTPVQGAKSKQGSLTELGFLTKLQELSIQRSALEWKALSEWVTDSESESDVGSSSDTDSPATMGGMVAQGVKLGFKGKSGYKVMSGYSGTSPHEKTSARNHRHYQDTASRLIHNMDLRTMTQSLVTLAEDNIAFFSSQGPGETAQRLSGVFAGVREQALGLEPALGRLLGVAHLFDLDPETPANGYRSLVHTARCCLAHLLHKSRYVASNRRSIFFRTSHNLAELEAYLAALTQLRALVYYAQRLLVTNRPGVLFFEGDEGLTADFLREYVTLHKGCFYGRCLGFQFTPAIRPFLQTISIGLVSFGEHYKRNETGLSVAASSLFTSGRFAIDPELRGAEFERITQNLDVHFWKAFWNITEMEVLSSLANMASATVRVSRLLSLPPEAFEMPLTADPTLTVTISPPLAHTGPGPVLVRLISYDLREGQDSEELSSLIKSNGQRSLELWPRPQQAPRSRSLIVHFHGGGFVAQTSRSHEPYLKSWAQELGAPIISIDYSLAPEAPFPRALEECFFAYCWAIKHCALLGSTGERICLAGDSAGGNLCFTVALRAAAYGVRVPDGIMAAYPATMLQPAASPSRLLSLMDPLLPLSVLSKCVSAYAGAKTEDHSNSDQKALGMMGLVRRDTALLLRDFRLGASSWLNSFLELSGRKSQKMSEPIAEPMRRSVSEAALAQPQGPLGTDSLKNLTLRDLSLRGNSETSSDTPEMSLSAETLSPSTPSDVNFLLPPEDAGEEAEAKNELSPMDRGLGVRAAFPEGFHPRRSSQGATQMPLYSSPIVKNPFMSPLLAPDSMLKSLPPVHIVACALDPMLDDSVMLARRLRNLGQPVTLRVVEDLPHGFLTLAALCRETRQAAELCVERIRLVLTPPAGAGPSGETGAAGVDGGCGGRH
As to the kind of experiment: Inhibition of recombinant human HSL expressed in Sf9 insect cells using PNPB as substrate measured after 5 mins by spectrophotometric method.

The target of data set [3] is T2, Hormone-sensitive lipase (Homo sapiens) (UniProt Q05469).
T2 sequence (whole entry): T1 sequence (Q05469 whole entry)
As to the kind of experiment: Inhibition of recombinant human HSL expressed in Sf9 insect cells at 1 uM using PNPB as substrate measured after 5 mins by spectrophotometric method.

Data set [4] deals with T2, Hormone-sensitive lipase (Homo sapiens). As to the kind of experiment: Inhibition of recombinant human HSL expressed in Sf9 insect cells at 10 uM using PNPB as substrate measured after 5 mins by spectrophotometric method.
The test system of data set [5] is Rattus norvegicus. As to the kind of experiment: Antilipolytic activity in orally dosed fasted Wistar rat assessed as reduction of plasma glycerol AUC ( 0 to 7 hrs). It is filed as functional, organism-based.
The nature of data set [6]: AUC (0 to 7 hrs) in rat at 3 mg/kg, po by LC-MS/MS analysis. Also noted: time < 7 hr, dose 3 mg/kg, route oral. It is filed as ADME, organism-based. To be noted: in vivo.
Data set [7] is described as follows: Half life in rat plasma at 3 mg/kg, po by LC-MS/MS analysis. It is filed as ADME, organism-based.
Data set [8] concerns Rattus norvegicus. As to the kind of experiment: Antilipolytic activity in fasted Wistar rat assessed as reduction of plasma glycerol AUC ( 0 to 7 hrs) at 3 mg/kg, po. It is filed as functional. The arrangement: scale not given: the % may be the effect or the level left.
For data set [9], the target named is T2, Hormone-sensitive lipase (Homo sapiens). Briefly: Mixed-type inhibition of recombinant human HSL expressed in Sf9 insect cells using PNPB as substrate measured after 5 mins by Lineweaver-Burk plot analysis.
The target of data set [10] is Acetylcholinesterase (Homo sapiens) (UniProt P22303). As to the kind of experiment: Inhibition of AChE (unknown origin) at >50 uM preincubated for 10 mins followed by addition of acetylthiocholine iodide as substrate measured after 15 mins by spectrophotometric method.
Chain of Acetylcholinesterase (Homo sapiens) (P22303 whole entry): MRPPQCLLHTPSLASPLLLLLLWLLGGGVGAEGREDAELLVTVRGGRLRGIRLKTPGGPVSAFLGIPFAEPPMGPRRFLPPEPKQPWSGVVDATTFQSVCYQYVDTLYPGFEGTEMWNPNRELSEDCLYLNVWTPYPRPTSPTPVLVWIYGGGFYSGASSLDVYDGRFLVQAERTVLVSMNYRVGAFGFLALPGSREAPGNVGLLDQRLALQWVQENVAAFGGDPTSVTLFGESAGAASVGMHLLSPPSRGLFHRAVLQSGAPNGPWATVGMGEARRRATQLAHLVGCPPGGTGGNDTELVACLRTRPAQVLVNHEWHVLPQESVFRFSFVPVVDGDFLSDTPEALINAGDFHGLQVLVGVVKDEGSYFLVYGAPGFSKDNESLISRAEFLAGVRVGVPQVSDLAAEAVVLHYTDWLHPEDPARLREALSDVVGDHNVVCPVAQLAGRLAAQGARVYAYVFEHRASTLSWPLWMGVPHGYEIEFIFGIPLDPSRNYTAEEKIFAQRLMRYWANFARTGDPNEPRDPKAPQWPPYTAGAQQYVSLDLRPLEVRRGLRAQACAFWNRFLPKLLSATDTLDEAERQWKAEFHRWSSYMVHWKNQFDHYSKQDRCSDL
The nature of data set [11]: Cmax in rat at 3 mg/kg, po by LC-MS/MS analysis. It is filed as ADME, organism-based. To be noted: in vivo. The arrangement: dose 3 mg/kg, route oral.
The target in data set [12] is Cholinesterase (Homo sapiens) (UniProt P06276). Briefly: Inhibition of BChE (unknown origin) at >50 uM preincubated for 10 mins followed by addition of S-butyrylthiocholine iodide as substrate measured after 15 mins by spectrophotometric method.
Chain of Cholinesterase (Homo sapiens) (P06276 whole entry): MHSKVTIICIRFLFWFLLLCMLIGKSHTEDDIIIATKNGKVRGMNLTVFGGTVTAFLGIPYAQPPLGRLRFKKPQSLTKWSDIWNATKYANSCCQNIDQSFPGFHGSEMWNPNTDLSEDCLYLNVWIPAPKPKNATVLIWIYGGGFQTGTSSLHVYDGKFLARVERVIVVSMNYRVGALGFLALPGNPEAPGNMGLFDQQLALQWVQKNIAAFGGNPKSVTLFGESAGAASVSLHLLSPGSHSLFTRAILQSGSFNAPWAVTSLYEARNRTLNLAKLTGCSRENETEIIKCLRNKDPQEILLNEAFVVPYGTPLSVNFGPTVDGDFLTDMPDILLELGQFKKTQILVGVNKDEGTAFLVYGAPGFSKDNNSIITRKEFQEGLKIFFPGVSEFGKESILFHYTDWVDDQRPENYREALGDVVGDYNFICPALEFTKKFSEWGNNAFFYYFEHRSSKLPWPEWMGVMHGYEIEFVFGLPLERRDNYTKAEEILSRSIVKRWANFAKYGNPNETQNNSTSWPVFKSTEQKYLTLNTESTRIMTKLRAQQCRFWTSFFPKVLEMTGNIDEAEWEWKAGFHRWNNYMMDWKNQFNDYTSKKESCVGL

Active and inactive are the calls of the source. The calls are words filed in the database; no cut-off is given here.

For `O=C(Oc1ccc(Oc2ccc(C(F)(F)F)cn2)cc1)N1CCC(O)CC1`, the result in data set [1] was Active. Further, the IC50 (usually the concentration that inhibits the measured activity by half) in data set [2] worked out at 270 nM.
As to `O=C(c1ccccc1OCc1ccc(Oc2ccc(C(F)(F)F)cn2)cc1)C(F)(F)F`, the inhibition – broadly, the change of the read-out against control, counted positive when it falls – in data set [3] is 1%.
Still for that read-out and setting: the value for `CC1(C)OB(c2ccc(OCc3ccc(Oc4ccc(C(F)(F)F)cn4)cc3)cc2)OC1(C)C` was -10%.
Still for that read-out and setting: the value for `N#Cc1ccccc1OCc1ccc(Oc2ccc(C(F)(F)F)cn2)cc1` was 0%; that for `CC1(C)OB(c2cccc(OCc3ccc(Oc4ccc(C(F)(F)F)cn4)cc3)c2)OC1(C)C` was 59%.
As to `OB(O)c1ccccc1OCc1ccccc1`, the IC50 in data set [2] was found to be 130 nM.
For the compound `CC1(C)OB(c2ccccc2OCc2ccc(Oc3ccc(C(F)(F)F)cn3)cc2)OC1(C)C`, the inhibition in data set [3] turned out to be 81%.
As for `O=C(Cc1ccc(Oc2ccc(C(F)(F)F)cn2)cc1)N1CCC(O)CC1`, in [4], the inhibition is 2%.
For the compound `O=P(O)(O)c1ccccc1OCc1ccc(Oc2ccc(C(F)(F)F)cn2)cc1`, the inhibition in data set [3] was -5%.
Regarding `O=C(Nc1ccc(Oc2ccc(C(F)(F)F)cn2)cc1)N1CCC(O)CC1`, in [4], the inhibition was determined as 0%.
For `OB(O)c1ccccc1OCc1ccc(Oc2ccc(C(F)(F)F)cn2)cc1`, the Activity entry in data set [5] is “Dose-dependent effect”; in data set [8], 11%. Further, the AUC(0-t) (usually the area under the concentration-time curve up to a stated or last time point) at 7 h in data set [6] was 1750 ng·h/mL. Moreover, the inhibition in data set [3] turned out to be 89%. In addition, the half-life (as a rule, the time in which the quantity being followed falls by half) in [7] was 2.95 h. In addition, the inhibition entry in [9] is “Active”. Further, the inhibition entry in data set [10] and in [12] was “inactive” each time. In addition, in data set [11], the Cmax – broadly, the maximum level reached in the sampled fluid or tissue – stood at 420 ng/mL. Also, the half-maximal inhibitory concentration (IC50) in data set [2] was 7 nM.
`O=C(O)c1ccccc1OCc1ccc(Oc2ccc(C(F)(F)F)cn2)cc1`: in [3], the inhibition is -8%.
